For assay [1], the system named is proteasome chymotrypsin-like activity. Description: Proteasome activity assay (LLVY-AMC cleavage) on cell lysates. It counts as cell-based, Homo sapiens. Conditions: lysates of HEK293T lines expressing BirA* fusion proteins or BirA* control; 24 hours with vs without tetracycline. As for the experimental part: Proteasome activity assay: The proteasome activity assay (PAA) was performed using the 20S proteasome activity assay kit (Millipore, APT280) following the manufacturer instructions. In short, cell pellets were thawed in ice-cold lysis buffer (50 mM HEPES pH 7.5; 5 mM EDTA; 150 mM NaCl; 1% (v/v) Triton X-100; 2 mM ATP) and left on ice for 30 minutes with short vortex steps (VWR international, VWR/444-1372) every 10 minutes. Samples were centrifuged at 20817×g, for 15 minutes at 4° C. to remove any debris. For protein amount estimation the EZQ Protein Quantitation Kit (Invitrogen, R33200) was used. 50 μg of protein extract were incubated with fluorophore-linked peptide substrate (LLVY-7-amino-4-methylcoumarin, AMC) for 60 minutes at 37° C. Proteasome activity was measured by quantification of fluorescent units from cleaved AMC at 380/460 nm using a microplate reader m1000 (Tecan).

Assay [2] concerns proteasome. In words: Proximity labeling (BioID) with PSMA4-miniTurbo, streptavidin enrichment and DIA mass spectrometry, with proteasome inhibition. Type of assay: cell-based, Homo sapiens. On the procedure:
For the “BioID” experiments, HEK293T lines were seeded at the density of approximately 1.6×10^4 cells/cm2 and incubated for 24 hours to allow cell attachment to the culture dish. The expression of BirA* or miniTurbo fusion proteins were induced by a single addition of tetracycline stock (solved in ethanol) exposing the cells to its final concentration of […] in total for 4 days. 2 hours (miniTurbo lines) or 24 hours (BirA* lines) prior to cell harvesting, 50 μM biotin was added to the culture media. For identification of proteasome substrates, PSMA4-miniTurbo or miniTurbo expressing cells were treated with 20 μM MG132 for 4 hours and/or 10 μM KB02-JQ1 for 12 hours. Upon treatment, cells were washed 3×times with PBS and harvested by trypsinization. For each sample, a pellet corresponding to 20 million cells was collected and snap-frozen in liquid nitrogen.
Cell pellets were thawed on ice were resuspended in 4.75 ml of BioID lysis buffer (50 mM Tris pH 7.5; 150 mM NaCl; 1 mM EDTA; 1 mM EGTA; 1% (v/v) Triton X-100; 1 mg/ml aprotinin; 0.5 mg/ml leupeptin; 250 U turbonuclease; 0.1% (w/v) SDS), followed by 1 hour incubation in the rotator mixer (STARLAB RM Multi-1) (15×rpm) at 4° C. to aid the lysis. Samples were then briefly sonicated in a Bioruptor Plus for 5 cycles (30 s ON/30 s OFF) at high setting and afterwards centrifuged at 20817×g, for 30 minutes at 4° C. to remove any debris.
Streptavidin coated Sepharose beads were acetylated by two successive treatments with 10 mM Sulfo-NHS-Acetate for 30 minutes at room temperature. The reaction was then quenched with 1 M Tris pH 7.5 (1:10 v/v) and then the beads were washed with 1×PBS and centrifuged at 2000×g for 1 minute at room temperature. This washing was performed 3 times in total. Cleared lysates were transferred to new tubes, 50 μl of acetylated beads added, and samples were incubated for 3 hours on the rotator (15×rpm) at 4° C. This was followed by centrifugation at 2000×g for 5 minutes at 4° C. and removal of 4.5 ml of the supernatant from each sample. […]

Residues, ends and D or L forms follow the SMILES beside them. *: point of attachment. Cbz = O=C(OCc1ccccc1)*

As for `CN(C)[C@@H]1C(O)=C(C(N)=O)C(=O)[C@@]2(O)C(O)=C3C(=O)c4c(O)cccc4[C@@](C)(O)[C@H]3C[C@@H]12` [tetracycline], the “reduction of proteasome activity following addition of tetracycline” value in assay [1] is 15-20%.
With `CC(C)C[C@@H](C=O)NC(=O)[C@H](CC(C)C)NC(=O)[C@H](CC(C)C)NC(=O)OCc1ccccc1` [MG132] (Cbz-Leu-Leu-Leu-aldehyde), the “impact on the biotinylated proteins quantified by mass spectrometry (principal component analysis)” value in assay [2] (HEK293T PSMA4-miniTurbo, 20 μM MG132 4 hours) is “clear impact”. Moreover, the “number of proteins enriched relative to miniTurbo control only in presence of MG132 (potential proteasome substrates)” value in assay [2] (HEK293T PSMA4-miniTurbo, 20 μM MG132 4 hours, log 2 fold change>1 and Q value<0.05) is reported as 296 proteins. For the same compound, the “enrichment of proteasome activators and ubiquitin in streptavidin pull downs, MG132-treated versus control cells” value in assay [2] (HEK293T cells expressing PSMA4-miniTurbo, 20 μM MG132 for 4 hours, biotin 2 hours) is “prominent enrichment of proteasome activators and ubiquitin”.

Source of the values: US20260243776A1, “A METHOD FOR DETECTING PROTEIN TARGETS OF AN ENZYME USING A BIOTIN LIGASE” (Leibniz-Institut für Alternsforschung - …, priority 2022, published 2026).
